Assay results taken from US20200223837A1, “BENZOFURAN AMIDES AND HETEROAROMATIC ANALOGUES THEREOF FOR USE IN THERAPY” (European Molecular Biology Laboratory, priority 2017, published 2020).

Tests used:
[1] = tested on: A549 lung adenocarcinoma cells; test: Growth of A549 cells in nude mice (xenograft); type: in vivo; details: 3 mg/kg and 10 mg/kg i.p. QD
Description: The following test can be conducted for determining, if administration of compounds influences the growth of A549 cells in nude mice, in comparison to solvent only and to carboplatin, a standard of care. An i.p. route of administration is evaluated at 10 and 3 mg/kg delivered i.p., q.d. and compared with solvent control and carboplatin at 75 mg/kg delivered Q7D4 ip. Eight mice are used per study condition.
Compounds are supplied as a dry powder. Each compound is first dissolved in DMSO to yield an appropriate concentration then mixed with 9 volumes of a previously prepared solution of Cremophor-EL: 5% Mannitol (1:8, v/v) warmed to 37° C. while vigorously vortexing. This mixture is sonicated in an ultrasonic bath heated to 40° C. for 15-20 min. The formulations are stable for 24 hours at ambient temperature. A working formulation batch is prepared immediately prior to the in vivo study. A dose volume of 5 ml/kg is used for each concentration and route of administration.
NMRI-nu/nu nude mice are injected subcutaneously in one flank with 5×10^6 A549 cells in 200 μl of DMEM prepared by trypsinizing an exponentially growing culture of cells. Tumours are allowed to develop to an approximate volume of 100 mm^3, (approximately one week after initiation) and thereafter treatment commenced. Body weights and tumour volume are determined every two days. […]

HeLa cells = test: Glucose uptake and lactate excretion in HeLa cells; type: cell-based; details: HeLa cells treated for 16 hours
Description: Prompted by these observations, the glucose uptake and lactate excretion in HeLa cells treated for 16 hours with the compound of examples 64 was evaluated. […] A reduction in glucose uptake was also observed in A549 (lung adenocarcinoma) and HCT116 (colon adenocarcinoma) cells.

`Cc1cnc(NC(=O)Cc2coc3cc4c(cc23)CCC4)s1` [Example 64, 2-(6,7-Dihydro-5H-cyclopenta[f]benzofuran-3-yl)-N-(5-methylthiazol-2-yl)acetamide] was tested, and the “body weight or signs of toxicity” value [1] was “No significant changes in body weight or signs of toxicity were apparent”, the “growth of A549 lung adenocarcinoma cells in nude mice” value ([1]; performed as well as carboplatin) was “substantially prevented the growth” and the lactic acid secretion (HeLa cells) was “concomitant reduction”. The glucose uptake reduced (HeLa cells; at and above concentrations giving maximal EGR1 expression) was “approximately 80%”.
